The values below come from patent publication US4929736A, “Latent isocynate derivatives useful for deactivating enzymes” (Board of Trustees of the Wichita State University, priority 1986, dated 1990).

This assay deals with T1, Human leukocyte elastase (HLE) (Homo sapiens, UniProt P08246).
T1 construct: purchased Elastin Products, St. Louis, Mo
T1 sequence (P08246 30-267): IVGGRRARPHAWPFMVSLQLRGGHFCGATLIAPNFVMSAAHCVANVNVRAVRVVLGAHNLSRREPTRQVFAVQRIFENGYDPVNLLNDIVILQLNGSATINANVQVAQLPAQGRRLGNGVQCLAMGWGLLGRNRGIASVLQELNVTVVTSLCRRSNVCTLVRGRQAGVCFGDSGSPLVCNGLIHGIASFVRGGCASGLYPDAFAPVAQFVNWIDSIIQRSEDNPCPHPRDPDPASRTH
In words: Spectrophotometric assay of HLE inactivation (in vitro). Format: biochemical. As for the experimental part: The appropriate amount of inhibitor in acetonitrile was mixed with PPE in phosphate buffer solution and placed in a constant temperature bath. Aliquots were withdrawn at different time intervals and transferred to a cuvette containing 100 uL of substrate, 140 uL of acetonitrile, and 2 mL of phosphate buffer, pH 6.5. After incubating for 30 seconds, the absorbance change was monitored for two minutes at 347.5 nm. […] Controlled reactions for 100% PPE activity were run in the presence of acetonitrile. A similar procedure was followed for HLE.
The reaction of an irreversible inhibitor with PPE and HLE may be illustrated by the scheme shown below: [drawing 5] where EI is the noncovalently bound enzyme-inactivator complex and E-I is the final product with the inhibitor covalently bound to the enzyme. The kinetics data were analyzed according to known procedures. The apparent pseudo-first-order inactivation rate constants were determined from the slopes of semilogarithmic plots of enzymatic activity remaining versus time using the following equation: [formula] where Et /EO is the amount of active enzyme remaining after time "t".
The assay procedure used was the procedure identified relative to the tests above in Table I.
(kobsd) were determined by plotting in [E]t /[E]o vs time.

Setting [1] is: Table V, succinimide derivatives.
Where [2] appears, read: Table IV, derivatives of phenylalanine, read-out: kobsd /[I], inhibition of leukocyte elastase.
Setting [3] is: Table VI, sulfur-containing amino acid esters, read-out: kobsd /[I], inhibition of HLE.
[4] abbreviates: Table III, inactive: no inhibition at 243fold excess of inhibitor over enzyme, 10min incubation.
[5] abbreviates: Table III, inactive: no inhibition at 243fold excess of inhibitor over enzyme, 10min incubation, read-out: kobsd /[I], inhibition of leukocyte elastase.
Where [6] appears, read: Table II monopotassium sulfonate salts.
The mark [7] stands for this setting: Table VI, sulfur-containing amino acid esters.
[8] abbreviates: Table II monopotassium sulfonate salts, read-out: k2 /Ki (HLE).
The mark [9] stands for this setting: Table V, succinimide derivatives, read-out: kobsd /[I], inhibition of leukocyte elastase.

“Also recorded” adds a separate entry of the source. Like-named read-outs stand apart in the source and are kept apart here.

As to `CS(=O)(=O)ON1C(=O)CCC1=O` [H, OSO2CH3], the “kobsd /[I], inhibition of leukocyte elastase” value under setting [1] was “inactive”. As for `COC(=O)[C@H](Cc1ccccc1)NC(=O)n1ccnc1` [Compound 28], the kinact/KI under setting [2] turned out to be 2070 M⁻¹ s⁻¹. Take `COC(=O)CSC[C@H](NC(=O)S(=O)(=O)O)C(=O)OC` [Compound 8, Table VI]: the kinact/KI under setting [3] came out at 17 M⁻¹ s⁻¹. With `O=C(NCc1ccc(C(F)(F)F)cc1)n1ccnc1` [Compound 11, Table III], the “kobsd /[I], inhibition of leukocyte elastase” value under setting [4] is “inactive”. Turning to `O=C(NCCc1cccc(F)c1)n1ccnc1` [Compound 19], the kinact/KI under setting [5] amounted to 38 M⁻¹ s⁻¹. With `CCC[C@@H](NC(=O)S(=O)(=O)O)C(=O)OC` [Compound 5, Table II], the “Inhibition of HLE (in words)” value was “no inhibitory activity”. Also, the “k2 /Ki (HLE)” value under setting [6] was “inactive”.

Turning to `O=C(NCCc1ccccc1)n1ccccc1=O` [Compound 21], the kinact/KI under setting [5] stood at 500 M⁻¹ s⁻¹. Turning to `CCSC[C@H](NC(=O)n1ccnc1)C(=O)OC` [Compound 10, Table VI], the kinact/KI under setting [3] was 4230 M⁻¹ s⁻¹.

Consider `O=C(NCCc1cccc(C(F)(F)F)c1)ON1C(=O)CCC1=O` [Compound 26], for which the kinact/KI under setting [5] is 13500 M⁻¹ s⁻¹. On to `Cc1ccc(S(=O)(=O)ON2C(=O)CCC2=O)cc1`, for which the “kobsd /[I], inhibition of leukocyte elastase” value under setting [1] is “inactive”. Regarding `O=C(NCc1cccc(F)c1)S(=O)(=O)O` [Compound 12, Table III], the “kobsd /[I], inhibition of leukocyte elastase” value under setting [4] was “inactive”. On to `O=C(NCc1cccc(F)c1)n1ccnc1` [Compound 14], for which the “kobsd /[I], inhibition of leukocyte elastase” value under setting [4] is “inactive”. For `COC(=O)[C@H](Cc1ccccc1)NC(=O)ON1C(=O)CCC1=O` [Compound 30], the kinact/KI under setting [2] was 6640 M⁻¹ s⁻¹.

Turning to `O=C(Nc1ccccc1C(F)(F)F)S(=O)(=O)O` [Compound 5, Table III], the “kobsd /[I], inhibition of leukocyte elastase” value under setting [4] was “inactive”. Take `O=C(NCCc1ccccc1)n1ccnc1` [Compound 18]: under setting [5], the kinact/KI worked out at 35 M⁻¹ s⁻¹. Regarding `COC(=O)[C@H](CSSC[C@H](NC(=O)S(=O)(=O)O)C(=O)OC)NC(=O)S(=O)(=O)O` [Compound 7, Table VI], under setting [7], the “kobsd /[I], inhibition of HLE” value was “inactive”.

As to `COC(=O)[C@H](CSCc1ccccc1)NC(=O)S(=O)(=O)O` [Compound 6, Table VI], the “kobsd /[I], inhibition of HLE” value under setting [7] is “inactive”. For the compound `COC(=O)[C@@H](NC(=O)S(=O)(=O)O)C(C)C` [Compound 3, Table II], the kinact/KI under setting [8] came to 800 M⁻¹ s⁻¹. For the same compound, the “Inhibition of HLE (in words)” value (listed as L-valine sulfonate salt) was “very potent inhibitors; also recorded: effective inhibitors”. As to `O=C(Nc1cccc(C(F)(F)F)c1)S(=O)(=O)O` [Compound 6, Table III], the “kobsd /[I], inhibition of leukocyte elastase” value under setting [4] was “inactive”. For `COC(=O)[C@H](CSC)NC(=O)S(=O)(=O)O` [Compound 5, Table VI], the kinact/KI under setting [3] came out at 1510 M⁻¹ s⁻¹. For `Cc1ccc(S(=O)(=O)ON2C(=O)CC(Cc3ccccc3)C2=O)cc1` (stereo not drawn), the kinact/KI under setting [9] turned out to be 1610 M⁻¹ s⁻¹. With `O=C(NCCc1ccccc1)ON1C(=O)CCC1=O` [Compound 24], under setting [5], the kinact/KI turned out to be 927 M⁻¹ s⁻¹. In the case of `O=C(Nc1ccccc1)S(=O)(=O)O` [Compound 1, Table III], under setting [4], the “kobsd /[I], inhibition of leukocyte elastase” value was “inactive”.

`COC(=O)[C@H](CSC)NC(=O)n1ccnc1` [Compound 9, Table VI]: the kinact/KI under setting [3] came to 4050 M⁻¹ s⁻¹.

On to `O=C(NCCc1cccc(F)c1)S(=O)(=O)O` [Compound 17, Table III], for which, under setting [5], the kinact/KI was 18 M⁻¹ s⁻¹. As for `COC(=O)C(Cc1cccc(C(F)(F)F)c1)NC(=O)S(=O)(=O)O` (stereo not drawn) [Compound 32], under setting [2], the kinact/KI is 13 M⁻¹ s⁻¹. In the case of `O=C(NCCc1cccc(F)c1)ON1C(=O)CCC1=O` [Compound 25], under setting [5], the kinact/KI came out at 823 M⁻¹ s⁻¹. On the same count and under the same terms, with `O=C(NCCc1cccc(F)c1)n1ccccc1=O` [Compound 22] the figure was 317 M⁻¹ s⁻¹.

In the case of `COC(=O)[C@H](Cc1ccccc1)NC(=O)S(=O)(=O)[O-].[K+]` [Compound 9, Table II, N-(Sulfocarbonyl)-L-phenylalanine Methyl Ester, Monopotassium Salt], the kinact/KI under setting [8] came to 530 M⁻¹ s⁻¹. Moreover, the “Inhibition of HLE (in words)” value (listed as L-phenylalanine sulfonate salt, Monopotassium Salt) is given as “also deactivate HLE but were not as effective; also recorded: also inactivate HLE, but not as efficiently; also recorded: effective inhibitors”. With `COC(=O)C(Cc1cccc(C(F)(F)F)c1)NC(=O)n1ccnc1` (stereo not drawn) [Compound 34], under setting [2], the kinact/KI is 1100 M⁻¹ s⁻¹.

As for `CCCCCCCCS(=O)(=O)ON1C(=O)CC(Cc2ccccc2)C1=O` (stereo not drawn) [BENZYL, OSO2(CH2)7 CH3], the kinact/KI under setting [9] turned out to be 1270 M⁻¹ s⁻¹.

For `COC(=O)[C@H](Cc1ccccc1)NC(=O)S(=O)(=O)O` [Compound 27], under setting [2], the kinact/KI turned out to be 550 M⁻¹ s⁻¹.

For `O=C1CC(Cc2ccccc2)C(=O)N1OS(=O)(=O)c1ccc(Br)cc1` (stereo not drawn), under setting [9], the kinact/KI came to 1650 M⁻¹ s⁻¹.

`CC[S+]([O-])C[C@H](NC(=O)S(=O)(=O)O)C(=O)OC` (stereo partly drawn) [Compound 4, Table VI]: the “Inhibition of HLE (in words)” value was “inactive”. Also, the “kobsd /[I], inhibition of HLE” value under setting [7] is “inactive”. In the case of `O=C(NCc1cccc(C(F)(F)F)c1)n1ccnc1` [Compound 15], under setting [4], the “kobsd /[I], inhibition of leukocyte elastase” value is “inactive”.

As for `CCCCS(=O)(=O)ON1C(=O)CC(Cc2ccccc2)C1=O` (stereo not drawn) [BENZYL, OSO2(CH2)3 CH3], the kinact/KI under setting [9] amounted to 1680 M⁻¹ s⁻¹. As for `O=C(Nc1ccccc1C(F)(F)F)n1ccnc1` [Compound 9, Table III], the “kobsd /[I], inhibition of leukocyte elastase” value under setting [4] is “inactive”. On to `COC(=O)[C@H](C)NC(=O)S(=O)(=O)O` [Compound 2, Table II], for which the “Inhibition of HLE (in words)” value is “devoid of any inhibitory activity”. Further, the “k2 /Ki (HLE)” value under setting [6] was “inactive”. With `O=C(Nc1cccc(C(F)(F)F)c1)n1ccnc1` [Compound 10, Table III], the “kobsd /[I], inhibition of leukocyte elastase” value under setting [4] was “inactive”.

Regarding `CN(C)S(=O)(=O)ON1C(=O)CC(Cc2ccccc2)C1=O` (stereo not drawn) [BENZYL, OSO2N(CH3)2], under setting [9], the kinact/KI is 323 M⁻¹ s⁻¹. Take `O=C(NCCc1cccc(C(F)(F)F)c1)n1ccnc1` [Compound 20]: the kinact/KI under setting [5] stood at 483 M⁻¹ s⁻¹. As for `O=C(Nc1ccc(C(F)(F)F)cc1)S(=O)(=O)O` [Compound 7, Table III], the “kobsd /[I], inhibition of leukocyte elastase” value under setting [4] is “inactive”.

As for `CCCC[C@H](NC(=O)S(=O)(=O)O)C(=O)OC` [Compound 6, Table II], under setting [8], the kinact/KI came out at 920 M⁻¹ s⁻¹. Where the note is “listed as L-norleucine sulfonate salt”, the “Inhibition of HLE (in words)” value was “very potent inhibitors; also recorded: effective inhibitors”.

For `COC(=O)C(Cc1cccc(F)c1)NC(=O)n1ccnc1` (stereo not drawn) [Compound 33], the kinact/KI under setting [2] amounted to 318 M⁻¹ s⁻¹.

As to `COC(=O)[C@H](CCSC)NC(=O)S(=O)(=O)O` [Compound 8, Table II], the kinact/KI under setting [8] came out at 260 M⁻¹ s⁻¹. Besides, the “Inhibition of HLE (in words)” value (listed as L-methionine sulfonate salt) is “also deactivate HLE but were not as effective; also recorded: also inactivate HLE, but not as efficiently; also recorded: effective inhibitors”. With `O=C(Nc1cccc(F)c1)n1ccnc1` [Compound 8, Table III], under setting [4], the “kobsd /[I], inhibition of leukocyte elastase” value was “inactive”. For `O=C1CC(Cc2ccccc2)C(=O)N1OS(=O)(=O)c1ccccc1` (stereo not drawn), the kinact/KI under setting [9] was 1170 M⁻¹ s⁻¹. In the case of `COC(=O)C(Cc1cccc(F)c1)NC(=O)S(=O)(=O)O` (stereo not drawn) [Compound 31], under setting [2], the kinact/KI came out at 57 M⁻¹ s⁻¹. With `COC(=O)[C@H](CC(C)C)NC(=O)S(=O)(=O)O` [Compound 7, Table II], the kinact/KI under setting [8] amounted to 260 M⁻¹ s⁻¹. In addition, the “Inhibition of HLE (in words)” value (listed as L-leucine sulfonate salt) was “also deactivate HLE but were not as effective; also recorded: also inactivate HLE, but not as efficiently; also recorded: effective inhibitors”.

As to `COC(=O)CSC[C@H](NC(=O)n1ccnc1)C(=O)OC` [Compound 11, Table VI], the kinact/KI under setting [3] came out at 15 M⁻¹ s⁻¹. In the case of `O=C(Nc1cccc(Cl)c1)S(=O)(=O)O` [Compound 2, Table III], the “kobsd /[I], inhibition of leukocyte elastase” value under setting [4] is “inactive”. For the compound `O=C(NCCc1ccccc1)S(=O)(=O)O` [Compound 16], under setting [5], the kinact/KI is 4 M⁻¹ s⁻¹. Consider `O=C(NCCc1cccc(C(F)(F)F)c1)n1ccccc1=O` [Compound 23], for which the kinact/KI under setting [5] is 11700 M⁻¹ s⁻¹. In the case of `O=C(Nc1ccc(Cl)cc1)S(=O)(=O)O` [Compound 3, Table III], under setting [4], the “kobsd /[I], inhibition of leukocyte elastase” value was “inactive”. Still for that read-out and setting: with `O=C(NCc1cccc(C(F)(F)F)c1)S(=O)(=O)O` [Compound 13, Table III] the entry was “inactive”. Turning to `O=C(Nc1cccc(F)c1)S(=O)(=O)O` [Compound 4, Table III], under setting [4], the “kobsd /[I], inhibition of leukocyte elastase” value was “inactive”.

Consider `COC(=O)[C@H](Cc1ccccc1)NC(=O)n1ccccc1=O` [Compound 29], for which, under setting [2], the kinact/KI was found to be 2330 M⁻¹ s⁻¹. Turning to `COC(=O)CNC(=O)S(=O)(=O)O` [Compound 1, Table II], the “Inhibition of HLE (in words)” value was “devoid of any inhibitory activity”. Besides, under setting [6], the “k2 /Ki (HLE)” value was “inactive”. With `COC(=O)[C@H](CC[S+](C)[O-])NC(=O)S(=O)(=O)O` (stereo partly drawn) [Compound 2, Table VI], the “Inhibition of HLE (in words)” value is “inactive”. Also, the “kobsd /[I], inhibition of HLE” value under setting [7] is “inactive”.
